Among the test systems are BT-549; CAKI-1; DU-145; HOP-62; HT-29; M14; MCF7; Malme-3M; NCI-H460; NCI/ADR-RES; OVCAR-3; OVCAR-5; PC-3; SF-268; SK-MEL-5; SW-620; T47D; UACC-257; UACC-62; RXF 393.
What all share (assay): NCI-60 cell line screen, 48 h

SMILES strings stand for the structures.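 A five-concentration, 48-hour dose response in 96-well plates underlies each endpoint, interpolated linearly between surrounding concentrations. GI50: concentration for 50% inhibition of growth.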 Active and inactive are the calls of the source. Rule as the data show it: active = GI50 up to about 1.1 µM and inactive = higher.

Take `Nn1c(=S)[nH]nc(/C=C/c2c(O)ccc3ccccc23)c1=O`: the GI50 with BT-549 is 5.43 µM (inactive); in the experiment with CAKI-1, 5.55 µM (inactive); with DU-145, 12.1 µM (inactive); in the experiment on HOP-62, 11.6 µM (inactive); in the experiment on HT-29, 4.03 µM (inactive); with M14 it was 5.71 µM (inactive). Moreover, the GI50 in the experiment on MCF7 was 2.72 µM (inactive); in the experiment with Malme-3M, 12.2 µM (inactive); with NCI-H460, 4.58 µM (inactive); in the experiment on NCI/ADR-RES, 3.26 µM (inactive); in the experiment with OVCAR-3, 3.13 µM (inactive); with OVCAR-5 it was 7.08 µM (inactive). The GI50 in the experiment on PC-3 was 11.1 µM (inactive); in the experiment on SF-268, 2.96 µM (inactive); in the experiment with SK-MEL-5 it was 10.2 µM (inactive); in the experiment on SW-620 it was 4.74 µM (inactive); in the experiment with T47D, 3.97 µM (inactive); with UACC-257, 5.3 µM (inactive). The GI50 in the experiment on UACC-62 was 4.88 µM (inactive).
Consider `COC(=O)[C@H]1C[C@H]1NC(=O)C(CC(=O)OCc1ccccc1)NC(=O)OCc1ccccc1` (stereo partly specified), for which the GI50 is 23.4 µM (inactive) in the experiment on BT-549; 73.5 µM (inactive) with DU-145; > 10 µM (inactive) in the experiment on HOP-62; 39 µM (inactive) in the experiment with HT-29; 25.7 µM (inactive) in the experiment on M14; 44.1 µM (inactive) in the experiment with MCF7. In addition, the GI50 in the experiment with NCI-H460 is 31.2 µM (inactive); in the experiment with NCI/ADR-RES, 28.3 µM (inactive); with OVCAR-5, > 100 µM (inactive); with PC-3 it was 35.3 µM (inactive); in the experiment on SF-268, 55.2 µM (inactive); in the experiment on SK-MEL-5 it was 25.4 µM (inactive). Also, the figures for the GI50 with SW-620, in the experiment on T47D and with UACC-257 were > 100 µM (inactive), 11.9 µM (inactive) and 86.7 µM (inactive), respectively.
With `Cn1c2ccc(C3=NCCN3)cc2c2cc(C3=NCCN3)ccc21`, the GI50 with BT-549 was > 100 µM (inactive); in the experiment on CAKI-1, > 100 µM (inactive); with DU-145, 26.4 µM (inactive); with HOP-62, 15.3 µM (inactive); in the experiment with HT-29, 7.82 µM (inactive); in the experiment on M14 it was 48.6 µM (inactive). The GI50 in the experiment with Malme-3M is 18.2 µM (inactive); with NCI-H460, 5.38 µM (inactive); in the experiment with NCI/ADR-RES, > 100 µM (inactive); in the experiment with OVCAR-3, 42 µM (inactive); with OVCAR-5 it was 38.4 µM (inactive); in the experiment with PC-3, 34.3 µM (inactive). For the same compound, the GI50 in the experiment with RXF 393 is 34.3 µM (inactive); in the experiment on SF-268, 0.0463 µM (active); in the experiment with SK-MEL-5, 31.3 µM (inactive); in the experiment with SW-620 it was 17.6 µM (inactive); with T47D, 7.89 µM (inactive); in the experiment on UACC-257, 43.8 µM (inactive).
For the compound `COC(=O)[C@@]1(Cc2ccc(O)cc2)C[C@@H]2Cc3ccccc3N2N1`, the GI50 is 45 µM (inactive) in the experiment with BT-549; > 100 µM (inactive) in the experiment with CAKI-1; > 100 µM (inactive) in the experiment on DU-145; > 100 µM (inactive) with HOP-62; 35.5 µM (inactive) in the experiment on HT-29; 38.8 µM (inactive) in the experiment with M14. Moreover, the GI50 was 63.2 µM (inactive) in the experiment with MCF7; 49 µM (inactive) in the experiment with Malme-3M; 31.8 µM (inactive) with NCI/ADR-RES; > 100 µM (inactive) in the experiment on OVCAR-3; > 100 µM (inactive) in the experiment with OVCAR-5; 34.5 µM (inactive) in the experiment on PC-3. The GI50 in the experiment on SF-268 is > 100 µM (inactive); with SK-MEL-5 it was 34.5 µM (inactive); in the experiment on SW-620, > 100 µM (inactive); with T47D, 23.5 µM (inactive); in the experiment with UACC-257 it was 23.3 µM (inactive); in the experiment on UACC-62 it was 70.8 µM (inactive).
Turning to `O=C(Cn1c2ccc(Br)cc2c2nc3ccccc3nc21)NNC(=O)NC1CCCCC1`, the GI50 was > 100 µM (inactive) in the experiment on BT-549; 30.3 µM (inactive) in the experiment on CAKI-1; 24.9 µM (inactive) in the experiment with DU-145; 27.7 µM (inactive) in the experiment with HOP-62; 40.3 µM (inactive) in the experiment on M14; 49 µM (inactive) with MCF7. In addition, the GI50 with Malme-3M was 52.2 µM (inactive); in the experiment with NCI-H460 it was 47.8 µM (inactive); in the experiment with OVCAR-3 it was 63.5 µM (inactive); with OVCAR-5, 52.8 µM (inactive); in the experiment on PC-3 it was 37.7 µM (inactive); in the experiment with RXF 393, 78.2 µM (inactive). Further, the GI50 with SF-268 is 45.5 µM (inactive); in the experiment on SK-MEL-5, > 100 µM (inactive); in the experiment on SW-620, 33 µM (inactive); in the experiment on T47D it was 33 µM (inactive); in the experiment on UACC-257 it was 98.9 µM (inactive); with UACC-62 it was > 100 µM (inactive).
Take `C=C(CN(C)C)C(=O)c1ccccc1OC`: the GI50 is 17.4 µM (inactive) in the experiment on BT-549; 9.82 µM (inactive) in the experiment on CAKI-1; > 45 µM (inactive) in the experiment on DU-145; > 52.8 µM (inactive) in the experiment with HOP-62; 20.5 µM (inactive) in the experiment with HT-29; 12 µM (inactive) in the experiment on M14. In addition, the GI50 is 7.66 µM (inactive) in the experiment with Malme-3M; 38.1 µM (inactive) in the experiment on NCI-H460; 20.7 µM (inactive) with NCI/ADR-RES; 16 µM (inactive) in the experiment on OVCAR-3; 19.1 µM (inactive) in the experiment on OVCAR-5; 17.5 µM (inactive) in the experiment on PC-3. The GI50 in the experiment on RXF 393 was 7.85 µM (inactive); in the experiment with SF-268 it was 25.2 µM (inactive); in the experiment on SK-MEL-5 it was 17.1 µM (inactive); with SW-620, 4.31 µM (inactive); in the experiment on T47D, 15 µM (inactive); in the experiment on UACC-257, 15.6 µM (inactive). For the same compound, the GI50 in the experiment with UACC-62 is 21 µM (inactive).
On to `O=C(NCCCCCCCCNC(=O)c1cccc2ccccc12)c1cccc2ccccc12`, for which the GI50 in the experiment with BT-549 was 39.6 µM (inactive); in the experiment on CAKI-1, 18.2 µM (inactive); with DU-145, > 100 µM (inactive); in the experiment on HOP-62 it was 4.07 µM (inactive); in the experiment with HT-29, > 100 µM (inactive); with M14, 34.4 µM (inactive). The GI50 with MCF7 was 71.4 µM (inactive); with Malme-3M it was 44.8 µM (inactive); in the experiment on NCI-H460, 65.3 µM (inactive); with NCI/ADR-RES, 28.3 µM (inactive); in the experiment on OVCAR-3, 16.7 µM (inactive); in the experiment on OVCAR-5, > 100 µM (inactive). The GI50 is > 100 µM (inactive) in the experiment with PC-3; 2.25 µM (inactive) in the experiment with RXF 393; 9.93 µM (inactive) in the experiment on SF-268; > 92.9 µM (inactive) with SK-MEL-5; > 100 µM (inactive) in the experiment on SW-620; > 93.1 µM (inactive) in the experiment on UACC-257. Moreover, the GI50 in the experiment with UACC-62 was 21.2 µM (inactive).
Consider `O=C1C=CN(C2OC(CO)C(O)C2O)C(=O)C1` (stereo unspecified), for which the GI50 was > 2500 µM (inactive) in the experiment on BT-549; 22.3 µM (inactive) in the experiment on CAKI-1; 9.38 µM (inactive) in the experiment on DU-145; 36.3 µM (inactive) with HOP-62; 32.3 µM (inactive) in the experiment with HT-29; 231 µM (inactive) with M14. Besides, the GI50 with MCF7 is 7.76 µM (inactive); with NCI-H460 it was 0.942 µM (active); in the experiment with OVCAR-3, 692 µM (inactive); with OVCAR-5, 1350 µM (inactive); in the experiment on PC-3 it was 155 µM (inactive); with RXF 393, 372 µM (inactive). Also, the GI50 was 32.5 µM (inactive) with SW-620, 173 µM (inactive) in the experiment on T47D, 1130 µM (inactive) with UACC-257 and 50.4 µM (inactive) with UACC-62.
Turning to `C=C[C@]1(C)CC(O)C2C(=C)C(=O)OC2[C@H]1C(=C)C=O` (stereo partly specified), the GI50 was 3.27 µM (inactive) in the experiment on BT-549; 4.35 µM (inactive) with CAKI-1; 12.1 µM (inactive) with DU-145; 15.5 µM (inactive) in the experiment with HOP-62; 2.33 µM (inactive) with HT-29; 2.08 µM (inactive) in the experiment with M14. Besides, the GI50 was 1.09 µM (active) in the experiment on MCF7; 1.86 µM (inactive) with Malme-3M; 14.5 µM (inactive) in the experiment on NCI-H460; 2.67 µM (inactive) with OVCAR-3; 10.8 µM (inactive) in the experiment with OVCAR-5; 2.87 µM (inactive) in the experiment with PC-3. The GI50 was 2.07 µM (inactive) with RXF 393; 3.95 µM (inactive) in the experiment with SF-268; 2.33 µM (inactive) in the experiment with SK-MEL-5; 1.44 µM (inactive) in the experiment on SW-620; 3.15 µM (inactive) in the experiment on T47D; 1.57 µM (inactive) in the experiment with UACC-257. For the same compound, the GI50 in the experiment with UACC-62 was 1.79 µM (inactive).
With `COc1cc2c(c(OC)c1)[C@H](C)N(Cc1ccccc1)C(C)C2` (stereo partly specified), the GI50 in the experiment with BT-549 is 61.8 µM (inactive); with CAKI-1 it was 64.9 µM (inactive); in the experiment on DU-145, > 100 µM (inactive); in the experiment on HOP-62, > 100 µM (inactive); in the experiment on HT-29, 9.57 µM (inactive); in the experiment with M14, 17.7 µM (inactive). Besides, the GI50 was 42.2 µM (inactive) with MCF7; 62.4 µM (inactive) in the experiment with Malme-3M; 11 µM (inactive) with NCI-H460; > 100 µM (inactive) in the experiment on PC-3; 80.2 µM (inactive) with SF-268; 25.4 µM (inactive) in the experiment on SK-MEL-5. Also, the GI50 in the experiment on SW-620 is 28.9 µM (inactive); in the experiment with T47D, 45.9 µM (inactive); in the experiment on UACC-257 it was 67.8 µM (inactive); with UACC-62 it was 52.5 µM (inactive).
Take `Cc1c(-c2ccccc2)[nH]n(C2=NCCN2)c1=O`: the GI50 with BT-549 was > 100 µM (inactive); with CAKI-1, > 100 µM (inactive); in the experiment with HOP-62, > 100 µM (inactive); with HT-29 it was 46.3 µM (inactive); with M14, > 100 µM (inactive); in the experiment on MCF7, > 100 µM (inactive). For the same compound, the GI50 in the experiment with Malme-3M is 41 µM (inactive); in the experiment with NCI-H460, 78.7 µM (inactive); with NCI/ADR-RES, > 100 µM (inactive); in the experiment with OVCAR-3 it was > 100 µM (inactive); in the experiment on OVCAR-5, > 100 µM (inactive); in the experiment on PC-3, > 100 µM (inactive). Moreover, the GI50 with RXF 393, in the experiment with SF-268, with SK-MEL-5, in the experiment with SW-620, with T47D and in the experiment with UACC-257 was > 100 µM (inactive) throughout. For the same compound, the GI50 with UACC-62 is > 100 µM (inactive).

For the origin of these results see ChEMBL document CHEMBL1201862, “PubChem BioAssay data set” (2004).
